Data set [1] deals with T1, ATP-dependent translocase ABCB1 (Homo sapiens, UniProt P08183). Nature of the data set: Inhibition of human MDR1 expressed in mouse L5178 cells assessed as increase in intracellular accumulation of rhodamine 123 AT 0.1 mM by FACSCalibur flow cytometry. It counts as cell-based. Conditions: l5178, 100 µM. (A flow cytometer gives signals particle by particle.)
In data set [2] the target is T1, ATP-dependent translocase ABCB1. The data set can be described thus: Inhibition of human MDR1 expressed in mouse L5178 cells assessed as increase in intracellular accumulation of rhodamine 123 by FACSCalibur flow cytometry. It counts as cell-based.

T1 sequence (P08183 whole entry): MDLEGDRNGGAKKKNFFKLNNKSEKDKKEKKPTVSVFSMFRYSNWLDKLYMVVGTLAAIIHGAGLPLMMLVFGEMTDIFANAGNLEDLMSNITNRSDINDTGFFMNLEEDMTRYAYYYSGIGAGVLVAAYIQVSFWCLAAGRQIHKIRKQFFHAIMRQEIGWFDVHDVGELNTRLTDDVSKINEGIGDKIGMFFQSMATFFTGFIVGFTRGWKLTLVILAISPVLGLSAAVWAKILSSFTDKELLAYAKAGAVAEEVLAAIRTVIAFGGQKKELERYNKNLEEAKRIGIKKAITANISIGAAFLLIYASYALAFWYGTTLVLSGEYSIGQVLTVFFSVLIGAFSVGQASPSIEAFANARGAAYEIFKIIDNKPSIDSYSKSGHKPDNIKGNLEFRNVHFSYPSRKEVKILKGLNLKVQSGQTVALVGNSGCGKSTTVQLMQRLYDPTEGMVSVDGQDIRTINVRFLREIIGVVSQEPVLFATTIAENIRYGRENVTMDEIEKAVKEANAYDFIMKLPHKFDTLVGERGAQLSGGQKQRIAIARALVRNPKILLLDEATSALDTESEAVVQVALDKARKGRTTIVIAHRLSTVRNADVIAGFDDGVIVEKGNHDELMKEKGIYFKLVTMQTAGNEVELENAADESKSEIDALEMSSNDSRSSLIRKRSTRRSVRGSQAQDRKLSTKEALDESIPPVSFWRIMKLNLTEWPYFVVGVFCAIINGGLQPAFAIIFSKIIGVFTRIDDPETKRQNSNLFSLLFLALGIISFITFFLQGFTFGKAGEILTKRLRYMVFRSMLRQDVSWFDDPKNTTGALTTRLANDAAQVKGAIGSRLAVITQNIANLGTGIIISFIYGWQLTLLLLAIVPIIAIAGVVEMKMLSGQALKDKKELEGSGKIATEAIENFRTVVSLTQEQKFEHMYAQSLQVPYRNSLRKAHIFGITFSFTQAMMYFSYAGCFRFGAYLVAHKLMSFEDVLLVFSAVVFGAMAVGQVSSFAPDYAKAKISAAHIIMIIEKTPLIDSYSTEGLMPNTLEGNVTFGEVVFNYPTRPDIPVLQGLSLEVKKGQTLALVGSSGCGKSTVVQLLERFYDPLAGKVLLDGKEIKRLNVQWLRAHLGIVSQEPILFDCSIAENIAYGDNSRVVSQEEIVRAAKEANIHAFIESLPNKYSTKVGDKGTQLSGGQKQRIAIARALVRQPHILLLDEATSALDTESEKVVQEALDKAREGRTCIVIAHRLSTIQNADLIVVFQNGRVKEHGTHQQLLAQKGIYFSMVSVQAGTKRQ

As to `COCCOCO[C@@H]1/C=C\COC(=O)/C=C/[C@@H](OC)[C@@H]2CCC(C)=C1C2(C)C`, the Alpha max in data set [1] is recorded as 0.37. For orientation: IC50 means the point on the concentration scale where inhibition reaches its midpoint. Turning to `COCCOCO[C@@H]1/C=C\COC(=O)/C=C/[C@@H](OC)[C@@H]2C[C@@H](OC(=O)c3ccccc3)C(C)=C1C2(C)C`, in data set [2], the IC50 came out at 7.2 µM. Also, in data set [1], the Alpha max is 1. For `COCCOCO[C@@H]1/C=C\C(OC(C)=O)C(OC(C)=O)/C=C/[C@@H](OC)[C@@H]2CCC(C)=C1C2(C)C` (stereo not given in full) the same measures were 24 µM and 1.

The record behind these values is ChEMBL document CHEMBL1687691, “From taxuspine x to structurally simplified taxanes with remarkable p-glycoprotein inhibitory activity” (ACS Med Chem Lett, 2010).
